{"source": "patent US20100029542A1", "about": "“PROTEIN STERILISATION BY RADIATION AND ADDITION OF A STABILISING COMPOSITION” (priority 2006, published 2010)", "key": {"human growth hormone": {"target": "T1, human growth hormone (Homo sapiens, UniProt P01241)", "T1 construct": "purchased National Institute of Biological Standards and Control; further samples on prescription from a GP surgery", "T1 sequence (P01241 27-217)": "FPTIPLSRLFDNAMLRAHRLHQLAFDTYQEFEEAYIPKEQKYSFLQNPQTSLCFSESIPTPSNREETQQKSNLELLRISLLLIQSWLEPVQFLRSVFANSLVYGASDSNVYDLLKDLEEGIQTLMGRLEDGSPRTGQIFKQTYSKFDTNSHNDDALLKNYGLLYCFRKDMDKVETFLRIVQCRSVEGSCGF", "test": "Recovery of structural integrity of human growth hormone in dry formulations following gamma irradiation (HPLC)", "format": "physicochemical", "conditions": "Table 4, prior-art antioxidants; structural integrity by HPLC; human growth hormone 2.5 mg mL^−1 prior to drying; dry; 25-40 kGy, ambient temperature"}, "Sandostatin": {"tested_on": "Sandostatin", "test": "Recovery of structural integrity of Sandostatin in dry formulations following gamma irradiation (HPLC)", "format": "physicochemical", "conditions": "structural integrity by HPLC, excipient:Sandostatin weight ratio 10:1, 25-40 kGy", "method": "In each example, an aqueous solution of a protein was prepared with selected additives in an Eppendorf tube or in a glass vial. Water was removed from the formulation by drying under a stream of nitrogen at 30° C. and subsequent incubation at atmospheric pressure in the presence of a dessicant. The Eppendorf tubes or the glass vials were sealed and delivered to an industrial sterilisation service for gamma irradiation, with a dose range typical for sterile medical products. The gamma-irradiated samples were reconstituted on their return and analysed for protein activity or structural integrity. The results were compared with those achieved using control (i.e. non-irradiated) samples.\nThe dry samples (approx. 20 μg in an Eppendorf tube) were gamma-irradiated by an industry-standard commercial sterilising service provided by Isotron PLC (Swindon, Wilts, UK), using a Cobalt 60 gamma source at ambient temperature. The radiation dose was in the range of 25-40 kGy.\nMobile phase A was 0.1 M triethylamine adjusted to pH 2.3 with phosphoric acid. Mobile phase B was acetonitrile. The mobile phases were filtered prior to their use. The following linear gradient was used: time 0: 90% A+10% B; time 35 min: 60% A+40% B. The liquid chromatograph (Agilent 1100 series) was equipped with a 214 nm detector, guard column and a 4.6×150 mm C18 column with a granulometry of 5 μm and a porosity of 30 nm, maintained at ambient temperature. The flow rate was maintained at 1.0 mL min^−1. Injection volume was 50 μL (typically sandostatin at 200 μg mL^−1). Results were expressed as % of main peak area (i.e. area of the peak corresponding to intact sandostatin measured in the gamma irradiated sample with respect to that measured in non-irradiated sample of identical composition). A chromatogram of a standard solution of sandostatin was recorded after every 12 samples to ensure that no drift in the position of the major peak had occurred. The control measurements ruled out any ambiguity in interpreting the chromatograms."}}, "data": [{"smiles": "CSCC[C@H](N)C(=O)O", "note": "[Methionine]", "values": [{"measurement": "Structural integrity remaining after gamma-irradiation (HPLC)", "setting": "human growth hormone", "result": 69.7, "unit": "%"}, {"measurement": "Enzyme activity remaining after gamma-irradiation", "setting": "Sandostatin; Table 8, singlet oxygen scavengers", "result": 91.1, "unit": "%"}, {"measurement": "Enzyme activity remaining after gamma-irradiation", "setting": "Sandostatin; Table 12, superoxide scavengers", "result": 91.1, "unit": "%"}]}]}
